Source: US20130131062A1, “PYRIDAZINONES AND FURAN-CONTAINING COMPOUNDS” (priority 2006, published 2013)

What was measured:
H1734 = assay: Non Small Cell Lung Cancer Proliferation Assay (Alamar Blue), dose response; details: Homo sapiens, NCI-H1734, read-out: H1734 Dose Response (uM)
Description: (§16) This assay was performed on a fully automated linear track robotic platform (CRS F3 Robot System, Thermo Electron Corp., Ontario, Canada) utilizing several integrated peripherals for plate handling, liquid dispensing, and readout detection. […] The microplates are then placed at 37° C. for 48 hours to complete treatment of cells with compounds. Next, 5 ul of alamar blue was added using a liquid dispenser (FlexDrop Precision Dispenser, Perkin Elmer, Mass., USA) and incubated for 48 hours at 37° C. The alamar blue prompt fluorescence was measured on Victor V (Victor^3 V, Perkin Elmer, Mass., USA) and output data files were loaded into ORIS (Oncology Research Informatics System, MSKCC, NY, USA), a screening data acquisition and analysis platform. […]

H1118 = assay: as above; details: Homo sapiens, read-out: H1118 Dose Response (uM)
Description: as §16

in vitro = details: human
Description: (§1) NHBE (normal human bronchiolar epithelial cells) are primary cells obtained from donor lungs and commercially available from Cambrex. The HPLID (human peripheral lung epithelial) cell line has been immortalized with the SV40 large T-antigen. WI-38: human lung fibroblast cell line. HPLID, NHBE and WI-38 cells will serve as controls in the chemical screens. WT: wildtype; WT*: over-expressed wildtype.
Compounds were tested in dose response studies from 10 μM to 5 nM against several non small cell lung cancer lines: H358, H827, H1118, H1650, H1734, H1975, H2030, and H3255, and were also studied in a 72 hour cytotoxicity assay against the NHBE and WI-38 cell lines.

H358 = assay: Non Small Cell Lung Cancer Proliferation Assay (Alamar Blue), dose response; details: Homo sapiens, NCI-H358, read-out: H358 Dose Response (uM)
Description: as §16

H2030 = assay: Non Small Cell Lung Cancer Proliferation Assay (Alamar Blue); type: cell-based, human; details: Homo sapiens, NCI-H2030, dose response 10 μM to 5 nM
Description: (§2) These cells have a doubling time of 1-2 days. All cell types are adherent and grow in colonies. The cells should be kept at a density between 50,000 cells/mL-500,000 cells/mL to provide for optimum growth and adequate nutrition. The cell line should be maintained at 37° C. in a humidified atmosphere with 5% CO2 in a sterile cell culture incubator.
(§3) To perform the assay, the Non Small Cell Lung Cancer lines are diluted in media and plated into 384 well microplates at a final density of 250 cells in 45 μL.
(§4) High Controls for this assay are made by treating Non Small Cell Lung Cancer cells with 5 ul of 10% DMSO. [Final concentration in this assay is 1% DMSO].
(§5) Important Note: All compounds for testing in this assay should be done at the final concentration of 1% DMSO.
(§6) After addition, the cells are placed in cell culture incubator at 37° C. for 48 hours for complete treatment.
(§7) After drug treatment, cytotoxicity is measured by Alamar Blue reduction.
(§8) The cells are incubated for 48 hours at 37° C. to complete the Alamar Blue reduction.
(§9) The final step in the assay is to measure the amount of Alamar Blue reduction. […] The Alamar Blue fluorescence is measured at an excitation of 530 nm and emission of 590 nm.
(§10) For the NSCLC project, the cell based assay was screened against a small molecule library of approximately 200,000 compounds. The compound library is stored in our automated robotic freezer (Biophile) at −20° C. in 100% DMSO. Compound freeze and thaw cycles are kept to a minimum. […] This assay was performed on a fully automated linear track robotic platform (CRS F3 Robot System, Thermo Electron Corp., Ontario, Canada) utilizing several integrated peripherals for plate handling, liquid dispensing, and readout detection. […] The microplates are then placed at 37° C. for 48 hours to complete treatment of cells with compounds. Next, 5 ul of alamar blue was added using a liquid dispenser (FlexDrop Precision Dispenser, Perkin Elmer, Mass., USA) and incubated for 48 hours at 37° C. The alamar blue prompt fluorescence was measured on Victor V (Victor^3 V, Perkin Elmer, Mass., USA) and output data files were loaded into ORIS (Oncology Research Informatics System, MSKCC, NY, USA), a screening data acquisition and analysis platform.

H3255 = assay: as above; type: cell-based, human; details: Homo sapiens, NCI-H3255, dose response 10 μM to 5 nM
Description: as §2, §3, §4, §5, §6, §7, §8, §9, §10

H827 = assay: Non Small Cell Lung Cancer Proliferation Assay (Alamar Blue), dose response; details: Homo sapiens, read-out: H827 Dose Response (uM)
Description: as §16

H1650 = assay: Non Small Cell Lung Cancer Proliferation Assay (Alamar Blue); type: cell-based, human; details: Homo sapiens, NCI-H1650, dose response 10 μM to 5 nM
Description: as §2, with “Non Small Cell Lung Cancer cell lines are grown and maintained in Corning 175 cm2 flasks in RPMI 1640 media supplemented with 10% FBS, 1% antibiotic solution, 1% additional glutamine and pyruvate. These” for “These”
(§11) To perform the assay, the Non Small Cell Lung Cancer lines are diluted in media and plated into 384 well microplates at a final density of 250 cells in 45 μL. To ensure consistency and minimal pipetting error, the cells are plated using the Multidrop 384 with the following settings: Rocker Switch set at 384, Volume 45 and Column 24.
(§12) Low Controls for this assay are made by treating Non Small Cell Lung Cancer cells with 5 ul of staurosporine at 250 uM in 10% DMSO and 1% SDS. [Final concentration in this assay is 25 uM staurosporine in 1% DMSO and 0.1% SDS.]
as §4
(§13) The remaining wells of the 384 microplate may be treated with different compounds depending on the study. Important Note: All compounds for testing in this assay should be done at the final concentration of 1% DMSO.
as §6
(§14) After drug treatment, cytotoxicity is measured by Alamar Blue reduction. 5 μL of Alamar Blue is added to the 384 microplates using the Flexdrop.
as §8, §9
(§15) For the NSCLC project, the cell based assay was screened against a small molecule library of approximately 200,000 compounds. The compound library is stored in our automated robotic freezer (Biophile) at −20° C. in 100% DMSO. Compound freeze and thaw cycles are kept to a minimum. Compounds for use are diluted into the appropriate concentration and plated into 384 well microplates using our custom built low volume 384-well head tool (TPS 384, Apricot Designs Inc., CA, USA). This assay was performed on a fully automated linear track robotic platform (CRS F3 Robot System, Thermo Electron Corp., Ontario, Canada) utilizing several integrated peripherals for plate handling, liquid dispensing, and readout detection. First, non-small cell lung cancer cell lines are dispensed into 384 well microplates (Corning #3712 Tissue Culture Treated Plate, Corning, N.Y., USA) with 5 μL of test compounds at 100 uM in 10% DMSO for screening studies or 1 mM in 10% DMSO to 50 nM in 10% DMSO for dose response studies. The microplates are then placed at 37° C. for 48 hours to complete treatment of cells with compounds. Next, 5 ul of alamar blue was added using a liquid dispenser (FlexDrop Precision Dispenser, Perkin Elmer, Mass., USA) and incubated for 48 hours at 37° C. The alamar blue prompt fluorescence was measured on Victor V (Victor^3 V, Perkin Elmer, Mass., USA) and output data files were loaded into ORIS (Oncology Research Informatics System, MSKCC, NY, USA), a screening data acquisition and analysis platform.

H1975 = assay: as above; type: cell-based, human; details: Homo sapiens, NCI-H1975, dose response 10 μM to 5 nM
Description: as §2, with “Non Small Cell Lung Cancer cell lines are grown and maintained in Corning 175 cm2 flasks in RPMI 1640 media supplemented with 10% FBS, 1% antibiotic solution, 1% additional glutamine and pyruvate. These” for “These”
as §11, §12, §4, §13, §6, §14, §8, §9, §15

HPL1D = assay: Sensitivity of cell proliferation to erlotinib; type: cell-based; details: Homo sapiens, read-out: IC50 (Erlotinib) HPL1D; EGFR WT, KRAS WT
Description: as §1

CN/N=C1\C=NN(c2ccccc2)C(=O)C1Cl (centres unmarked) [compound 257024]
IC50 (H1734): > 10 µM
IC50 (H1118): > 10 µM
IC50 at 72 h (in vitro): > 10 µM
IC50 at 72 h (in vitro; NHBE CytoTox (uM)): > 10 µM
IC50 (H358): > 10 µM
IC50 (H2030): > 10 µM
IC50 (H3255): > 10 µM
IC50 (H827): > 10 µM
IC50 (H1650): > 10 µM
IC50 (H1975): > 10 µM

C#Cc1cccc(Nc2ncnc3cc(OCCOC)c(OCCOC)cc23)c1 [Erlotinib, erlotinib]
IC50 (HPL1D): 10 µM
